In patent US11045833B2, “Task specific ionic liquid-impregnated polymeric surface coatings for antibacterial, antifouling, and metal scavenging activity” (Massachusetts Institute of Technology, priority 2017, dated 2021):

How the values were obtained:
[1] = Desorption of polymer and ionic liquid from coated glass slides in water; assay type: physicochemical; conditions: after a day in water
[2] = system: Pseudomonas aeruginosa; test: Biofilm formation in flow cell with CVD polymer coating, inoculated medium flowed through; assay type: cell-based; conditions: IL encapsulated in CVD polymer film on flow cell; medium inoculated with P. aeruginosa
Excerpt: Chemical vapor deposition (CVD) was used to cross-link a polymer and bind it to a flow cell surface using in a custom built vacuum reactor (Sharon Vacuum) previously described (Martin, T. P. et al. Biomaterials 2007, 28, 909-915; and Ozaydin-Ince, G. et al. J. Vac. Sci. Technol., A 2009, 27, 1135-1143). During CVD depositions, tert-butyl peroxide (TBPO) and monomers N,N-dimethylacrylamide ([…], FIG. 2A) and di(ethylene glycol) divinyl ether (DEGDVE, FIG. 2B) were introduced into the CVD reactor through mass flow controllers (1479 MFC, MKS Instruments). The grafting agent was trichlorovinylsilane (FIG. 2C), which covalently grafted the polymer network onto the surface via silanization. DMMA, which was the repeating unit in the polymer chains, was introduced into the chamber at a rate of about 2.8 mL/min. The crosslinker DEGDVE, which linked different polymer chains, was introduced into the chamber at a rate of 0.3 mL/min. The initiator TBPO was introduced into the chamber at a rate of about 1.0 mL/min. The substrate temperature was about 30° C., and the chamber pressure was about 400 mTorr. The ionic liquid was N-hexylethylenediaminium bis([…])amide, [HHex][Tf2N] (FIG. 1).
A flow cell had the bottom side CVD coated by the polymer as described in Example 2. One cell had the polymer film impregnated by an IL ([HHex][Tf2N]). […]

[3] = Ionic liquid leaching from ionogel by ICP mass spectrometry; assay type: physicochemical; conditions: IL trapped in ionogel

N-hexylethylenediaminium bis(trifluoroethanesulfonyl)amide [[HHex][Tf2N]]
desorption of polymer and ionic liquid [1]: have not desorbed | biofilm growth [2]: no biofilm growth | ionic liquid leaching over time [3]: lack of ionic liquid leaching over time
